Results on twelve compounds are retold here after ChEMBL document CHEMBL4219201, “Secoiridoid analogues from the fruits of Ligustrum lucidum and their inhibitory activities against influenza A virus” (Bioorg Med Chem Lett, 2018).

As usually defined, the inhibition is the change of the read-out against control, counted positive when it falls. As usually defined, the IC50 is the concentration at which inhibition is half-maximal. One may read the CC50 as the concentration that lowers cell viability or growth by half.

Calls of active or inactive are those of the source. The calls are words filed in the database; no cut-off is given here.

The test system of series [1] is Influenza A virus. The experiment in a line: Antiviral activity against Influenza A virus (A/WSN/1933(H1N1)) infected in MDCK cells cocultured with human 293T-Gluc cells at 100 uM preincubated with compound for 2 hrs followed by virus infection measured after 24 hrs by luciferase reporter gene assay relative to control. The series is classed as functional. On the technique in general: In a reporter assay the amount or activity of a reporter protein is the signal.

Series [2] has as its system Influenza A virus. The experiment in a line: Antiviral activity against Influenza A virus (A/WSN/1933(H1N1)) infected in MDCK cells cocultured with human 293T-Gluc cells at 20 uM preincubated with compound for 2 hrs followed by virus infection measured after 24 hrs by luciferase reporter gene assay relative to control. The series is classed as functional.
The subject of series [3] is Influenza A virus. Kind of series: Antiviral activity against Influenza A virus (A/WSN/1933(H1N1)) infected in MDCK cells cocultured with human 293T-Gluc cells preincubated with compound for 2 hrs followed by virus infection measured after 24 hrs by luciferase reporter gene assay. The series is classed as functional, organism-based.
Series [4] in a line: Cytotoxicity against MDCK cells assessed as reduction in cell viability by CCK8 assay. Format: cell-based, Canis lupus familiaris. To be noted: dog. For orientation: Formazan colour is commonly taken as a measure of viable cells.

Turning to `COC(=O)C1=CO[C@@H](O[C@@H]2O[C@H](CO)[C@@H](O)[C@H](O)[C@H]2O)/C(=C/C(=O)O)[C@@H]1CC(=O)OCCc1ccc(O)c(O)c1`, the inhibition at 100 µM in the series on Influenza A virus [1] was determined as 83.2%. Also, the inhibition at 20 µM in the series with Influenza A virus [2] was 63.1%. Moreover, the IC50 in the series with Influenza A virus [3] stood at 13.1 µM. In series [4], the CC50 was above 100 µM.
The like results for `COC(=O)C1=CO[C@@H](O[C@@H]2O[C@H](CO)[C@@H](O)[C@H](O)[C@H]2O)/C(=C/C(=O)O)[C@@H]1CC(=O)OCCc1ccc(O)cc1` were, in that order, 81.7%, 60.4%, 12.5 µM and above 100 µM.
Turning to `C/C=C1/[C@H]2OC=C(C(=O)OC)[C@H]1CC(=O)OC[C@@H](c1ccc(O)c(O)c1)OC[C@H]1O[C@@H](O2)[C@H](O)[C@@H](O)[C@@H]1O`, the inhibition result with Influenza A virus [1] and with Influenza A virus [2] was “inactive” in each case.
In the case of `CCOC(=O)C[C@@H]1C(C(=O)OC)=CO[C@@H](C)[C@@H]1C=O`, the inhibition at 100 µM in the series with Influenza A virus [1] came to 96.8%. The inhibition at 20 µM in the series on Influenza A virus [2] turned out to be 55.8%. In addition, the IC50 in the series with Influenza A virus [3] is 18.5 µM. Also, the CC50 in series [4] is 90.8 µM.
`C/C=C1/[C@H]2OC=C(C(=O)OC)[C@H]1CC(=O)OC[C@H](c1ccc(O)c(O)c1)OC[C@H]1O[C@@H](O2)[C@H](O)[C@@H](O)[C@@H]1O`: the inhibition result in the series on Influenza A virus [1] and in the series on Influenza A virus [2] was “inactive” each time.
As to `C[C@H]1OC(=O)CC2C(C(=O)O)=CO[C@@H](O[C@@H]3O[C@H](COC(=O)/C=C/c4ccccc4)[C@@H](O)[C@H](O)[C@H]3O)C21` (stereo partly specified), the inhibition at 100 µM in the series with Influenza A virus [1] was determined as 33.3%. Besides, the inhibition at 20 µM in the series with Influenza A virus [2] amounted to 35.6%.
On to `COC(=O)C[C@@H]1C(C(=O)OC)=CO[C@@H](C)[C@@H]1C(OC)OC`, for which the inhibition entry in the series on Influenza A virus [1] and with Influenza A virus [2] was “inactive” throughout.
As to `C/C=C1/[C@H](O[C@@H]2O[C@H](CO[C@@H]3O[C@H](CO)[C@@H](O)[C@H](O)[C@H]3O)[C@@H](O)[C@H](O)[C@H]2O)OC=C(C(=O)OC)[C@H]1CC(=O)OCCc1ccc(O)cc1`, the inhibition at 100 µM with Influenza A virus [1] was found to be 60.8%. Also, in the series on Influenza A virus [2], the inhibition at 20 µM came out at 17.8%.
Turning to `NC(=O)c1ncn([C@@H]2O[C@H](CO)[C@@H](O)[C@H]2O)n1` [RIBAVIRIN], the IC50 in the series with Influenza A virus [3] was determined as 22.6 µM.
As for `COC(=O)C1=CO[C@@H](O[C@@H]2O[C@H](CO)[C@@H](O)[C@H](O)[C@H]2O)[C@@](O)(CC(=O)O)[C@@H]1CC(=O)O`, the inhibition at 100 µM with Influenza A virus [1] amounted to 76.2%. Moreover, in the series with Influenza A virus [2], the inhibition at 20 µM was determined as 29.4%.
For the compound `C=C[C@H]1[C@H](O[C@@H]2O[C@H](COC(=O)/C=C/c3ccccc3)[C@@H](O)[C@H](O)[C@H]2O)OC=C(C(=O)O)[C@H]1CC(=O)O`, the inhibition at 100 µM in the series on Influenza A virus [1] stood at 73.9%. The inhibition at 20 µM with Influenza A virus [2] is 60.8%. Also, the IC50 in the series with Influenza A virus [3] was 16.5 µM. Also, the CC50 in series [4] is 80.5 µM.
As to `C=C[C@H]1[C@H](O[C@@H]2O[C@H](COC(=O)/C=C/c3ccccc3)[C@@H](O)[C@H](O)[C@H]2O)OC=C(C(=O)O)[C@H]1CC(=O)OC`, the inhibition entry in the series on Influenza A virus [1] and in the series with Influenza A virus [2] was “inactive” in each case.
